In ChEMBL document CHEMBL5291721, “A preclinical secondary pharmacology resource illuminates target-adverse drug reaction associations of marketed drugs” (Nat Commun, 2023):

Legend:
[1] = biological target: Glutamate receptor ionotropic, NMDA 1 (Rattus norvegicus, UniProt P35439)
Adenosine receptor A3 = biological target: T1, Adenosine receptor A3 (Homo sapiens, UniProt P0DMS8)
T1 sequence (P0DMS8 whole entry): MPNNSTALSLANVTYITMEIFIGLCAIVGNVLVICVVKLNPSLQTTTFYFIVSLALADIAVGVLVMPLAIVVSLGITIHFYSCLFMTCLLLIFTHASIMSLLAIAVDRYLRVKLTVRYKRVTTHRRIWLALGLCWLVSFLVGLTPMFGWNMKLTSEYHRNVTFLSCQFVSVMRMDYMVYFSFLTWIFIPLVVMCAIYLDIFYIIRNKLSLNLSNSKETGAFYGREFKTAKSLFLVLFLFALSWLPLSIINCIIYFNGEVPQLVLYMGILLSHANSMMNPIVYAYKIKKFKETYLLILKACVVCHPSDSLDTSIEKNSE

[2] = biological target: Vascular endothelial growth factor receptor 2 (Homo sapiens, UniProt P35968); format: functional
Sequence of Vascular endothelial growth factor receptor 2 (P35968 whole entry): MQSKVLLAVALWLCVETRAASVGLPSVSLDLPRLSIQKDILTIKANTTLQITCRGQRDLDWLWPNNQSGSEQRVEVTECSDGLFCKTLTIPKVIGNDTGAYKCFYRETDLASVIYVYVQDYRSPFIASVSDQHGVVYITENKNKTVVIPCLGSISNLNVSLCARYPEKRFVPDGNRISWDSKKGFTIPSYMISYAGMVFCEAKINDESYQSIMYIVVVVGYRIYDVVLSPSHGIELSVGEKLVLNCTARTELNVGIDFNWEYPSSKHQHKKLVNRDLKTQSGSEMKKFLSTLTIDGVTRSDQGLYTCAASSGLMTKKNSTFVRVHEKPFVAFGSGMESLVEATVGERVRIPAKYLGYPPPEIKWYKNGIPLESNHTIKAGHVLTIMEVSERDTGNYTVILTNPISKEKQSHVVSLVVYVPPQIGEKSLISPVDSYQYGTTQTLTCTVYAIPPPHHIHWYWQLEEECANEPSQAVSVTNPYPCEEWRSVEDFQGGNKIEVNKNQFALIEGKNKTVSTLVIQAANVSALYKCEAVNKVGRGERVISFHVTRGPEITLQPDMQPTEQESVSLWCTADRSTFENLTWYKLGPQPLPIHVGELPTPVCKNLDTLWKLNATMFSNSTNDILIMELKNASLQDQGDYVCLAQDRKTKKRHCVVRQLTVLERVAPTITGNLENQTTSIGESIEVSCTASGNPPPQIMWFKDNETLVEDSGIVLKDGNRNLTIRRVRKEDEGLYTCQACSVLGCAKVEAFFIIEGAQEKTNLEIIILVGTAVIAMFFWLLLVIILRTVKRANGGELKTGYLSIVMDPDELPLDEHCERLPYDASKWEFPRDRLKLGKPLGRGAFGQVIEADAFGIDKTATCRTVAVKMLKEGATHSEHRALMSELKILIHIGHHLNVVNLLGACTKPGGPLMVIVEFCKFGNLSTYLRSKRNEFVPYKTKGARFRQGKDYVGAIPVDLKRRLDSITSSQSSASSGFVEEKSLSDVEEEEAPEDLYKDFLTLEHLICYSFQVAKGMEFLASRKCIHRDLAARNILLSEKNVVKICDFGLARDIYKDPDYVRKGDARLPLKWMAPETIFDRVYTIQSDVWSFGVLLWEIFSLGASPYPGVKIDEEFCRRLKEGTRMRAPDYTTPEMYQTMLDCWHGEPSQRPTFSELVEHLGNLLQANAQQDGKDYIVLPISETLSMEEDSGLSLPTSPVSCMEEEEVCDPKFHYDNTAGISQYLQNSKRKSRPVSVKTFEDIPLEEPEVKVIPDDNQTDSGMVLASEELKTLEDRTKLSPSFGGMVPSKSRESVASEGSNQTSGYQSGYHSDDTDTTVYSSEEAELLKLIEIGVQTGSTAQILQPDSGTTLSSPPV

[3] = biological target: T2, Alpha-1A adrenergic receptor (Homo sapiens, UniProt P35348); format: functional, cell-based
T2 sequence (P35348 whole entry): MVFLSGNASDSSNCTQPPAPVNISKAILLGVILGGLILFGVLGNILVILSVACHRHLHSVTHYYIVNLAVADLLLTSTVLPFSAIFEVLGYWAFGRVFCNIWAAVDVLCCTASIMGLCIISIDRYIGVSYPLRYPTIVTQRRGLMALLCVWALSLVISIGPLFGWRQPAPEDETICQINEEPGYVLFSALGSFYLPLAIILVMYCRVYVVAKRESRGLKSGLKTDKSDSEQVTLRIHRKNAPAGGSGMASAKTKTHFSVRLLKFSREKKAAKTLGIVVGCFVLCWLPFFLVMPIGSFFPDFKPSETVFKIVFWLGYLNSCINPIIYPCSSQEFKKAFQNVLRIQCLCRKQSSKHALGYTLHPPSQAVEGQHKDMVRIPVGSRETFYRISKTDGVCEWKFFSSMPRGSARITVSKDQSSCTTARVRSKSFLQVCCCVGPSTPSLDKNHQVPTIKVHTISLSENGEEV

[4] = biological target: T3, Amine oxidase [flavin-containing] A (Homo sapiens, UniProt P21397); format: functional
T3 sequence (P21397 whole entry): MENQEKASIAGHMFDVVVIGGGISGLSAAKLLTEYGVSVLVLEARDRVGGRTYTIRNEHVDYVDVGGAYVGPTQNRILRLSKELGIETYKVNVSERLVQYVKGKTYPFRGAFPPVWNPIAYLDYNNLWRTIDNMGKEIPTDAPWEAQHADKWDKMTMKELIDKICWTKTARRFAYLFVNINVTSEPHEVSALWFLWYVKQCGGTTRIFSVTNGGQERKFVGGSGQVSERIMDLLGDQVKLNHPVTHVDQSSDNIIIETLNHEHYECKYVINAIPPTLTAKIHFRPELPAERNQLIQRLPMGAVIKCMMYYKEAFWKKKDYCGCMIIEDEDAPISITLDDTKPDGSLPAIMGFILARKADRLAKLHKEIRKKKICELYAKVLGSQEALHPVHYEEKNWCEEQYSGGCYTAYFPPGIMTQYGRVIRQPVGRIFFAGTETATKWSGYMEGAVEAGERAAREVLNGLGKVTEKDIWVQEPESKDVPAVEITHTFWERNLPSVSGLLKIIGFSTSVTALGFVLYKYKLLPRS

[5] = biological target: T4, 5-hydroxytryptamine receptor 1A (Homo sapiens, UniProt P08908)
T4 sequence (P08908 whole entry): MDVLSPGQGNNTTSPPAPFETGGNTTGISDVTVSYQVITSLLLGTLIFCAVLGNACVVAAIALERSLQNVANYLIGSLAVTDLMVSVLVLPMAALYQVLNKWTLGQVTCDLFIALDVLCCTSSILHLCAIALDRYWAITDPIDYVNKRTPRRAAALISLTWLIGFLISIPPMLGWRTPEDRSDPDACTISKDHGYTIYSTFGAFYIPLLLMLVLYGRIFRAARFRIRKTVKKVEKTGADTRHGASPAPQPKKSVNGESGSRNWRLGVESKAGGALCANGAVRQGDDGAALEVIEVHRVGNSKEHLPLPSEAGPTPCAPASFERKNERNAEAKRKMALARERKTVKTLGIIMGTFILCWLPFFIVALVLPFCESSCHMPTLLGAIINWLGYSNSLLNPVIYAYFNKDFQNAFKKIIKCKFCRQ

[6] = biological target: T5, Muscarinic acetylcholine receptor M2 (Homo sapiens, UniProt P08172); format: functional, cell-based
T5 sequence (P08172 whole entry): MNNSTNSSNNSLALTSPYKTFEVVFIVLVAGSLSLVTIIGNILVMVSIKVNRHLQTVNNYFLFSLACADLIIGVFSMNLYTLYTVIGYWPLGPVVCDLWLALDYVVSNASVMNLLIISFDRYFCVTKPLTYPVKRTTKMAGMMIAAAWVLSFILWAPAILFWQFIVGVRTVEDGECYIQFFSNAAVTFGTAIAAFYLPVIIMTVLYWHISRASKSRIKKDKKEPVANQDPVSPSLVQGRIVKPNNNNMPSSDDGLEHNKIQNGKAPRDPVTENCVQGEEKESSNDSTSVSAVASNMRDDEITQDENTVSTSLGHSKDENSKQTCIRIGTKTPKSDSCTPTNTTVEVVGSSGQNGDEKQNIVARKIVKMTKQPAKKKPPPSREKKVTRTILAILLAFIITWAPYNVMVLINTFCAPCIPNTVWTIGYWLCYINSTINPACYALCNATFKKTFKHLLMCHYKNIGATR

Vasopressin V1a receptor = Vasopressin V1a receptor (Homo sapiens, UniProt P37288)
Sequence of Vasopressin V1a receptor (P37288 whole entry): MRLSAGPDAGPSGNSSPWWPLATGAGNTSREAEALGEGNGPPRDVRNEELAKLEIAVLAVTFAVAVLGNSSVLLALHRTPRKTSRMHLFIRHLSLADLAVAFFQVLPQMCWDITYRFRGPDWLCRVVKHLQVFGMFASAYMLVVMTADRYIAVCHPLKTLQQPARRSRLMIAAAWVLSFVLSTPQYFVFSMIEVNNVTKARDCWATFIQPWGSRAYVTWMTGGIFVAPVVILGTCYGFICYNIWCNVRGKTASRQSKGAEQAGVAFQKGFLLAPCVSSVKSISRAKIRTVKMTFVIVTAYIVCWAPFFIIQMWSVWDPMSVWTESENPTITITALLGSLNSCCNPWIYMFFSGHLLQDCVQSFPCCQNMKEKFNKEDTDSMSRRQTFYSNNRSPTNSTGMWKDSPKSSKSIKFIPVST

Prothrombin = Prothrombin (Homo sapiens, UniProt P00734); format: functional
B2 bradykinin receptor = biological target: T6, B2 bradykinin receptor (Homo sapiens, UniProt P30411)
T6 sequence (P30411 whole entry): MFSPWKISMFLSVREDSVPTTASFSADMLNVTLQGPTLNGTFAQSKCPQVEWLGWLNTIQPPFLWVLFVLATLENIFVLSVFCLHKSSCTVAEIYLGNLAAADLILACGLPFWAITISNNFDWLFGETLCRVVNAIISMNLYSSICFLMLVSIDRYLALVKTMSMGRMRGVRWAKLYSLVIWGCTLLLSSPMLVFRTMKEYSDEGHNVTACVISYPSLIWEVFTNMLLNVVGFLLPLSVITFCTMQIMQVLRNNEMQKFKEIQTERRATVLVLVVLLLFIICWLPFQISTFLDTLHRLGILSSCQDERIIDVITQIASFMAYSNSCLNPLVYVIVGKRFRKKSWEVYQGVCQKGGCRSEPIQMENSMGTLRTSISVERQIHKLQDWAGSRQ
Also: assay procedure not described here.

SMILES	AC50 [1] [µM]	AC50 (Adenosine receptor A3) [µM]	AC50 [2] [µM]	AC50 [3] [µM]	AC50 [4] [µM]	AC50 [5] [µM]	AC50 [6] [µM]	AC50 (Vasopressin V1a receptor) [µM]	AC50 (Prothrombin) [µM]	AC50 (B2 bradykinin receptor) [µM]
Nc1nc(N)c2nc(-c3ccccc3)c(N)nc2n1	> 30	> 30	> 30	> 30	> 30	> 30	> 30	> 30	> 3	> 30
C[C@H]1O[C@H](O[C@H]2[C@H](O)[C@@H](O)[C@@H](O[C@H]3[C@H](O)[C@@H](O)C(O)O[C@@H]3CO)O[C@@H]2CO)[C@H](O)[C@@H](O)[C@@H]1N[C@H]1C=C(CO)[C@@H](O)[C@H](O)[C@H]1O (stereo partly specified) [ACARBOSE]	> 10	> 30	> 30	> 30	> 30	> 30	> 10	> 30	> 30	> 30
Oc1ncnc2[nH]ncc12 [ALLOPURINOL]	> 10	> 30	> 30	> 30	> 30	> 30	> 10	> 10	> 30	> 30
CCC(=O)c1c(O)cc(O)cc1O [FLOPROPIONE]	–	> 30	> 30	> 30	> 30	> 30	–	–	> 30	–
CC1(C)O[C@@H]2C[C@H]3[C@@H]4C[C@H](F)C5=CC(=O)CC[C@]5(C)[C@H]4[C@@H](O)C[C@]3(C)[C@]2(C(=O)CO)O1 [FLURANDRENOLIDE]	–	> 30	> 30	> 30	> 30	> 30	–	–	> 30	–
CC(C)C(=O)Nc1ccc([N+](=O)[O-])c(C(F)(F)F)c1 [FLUTAMIDE]	> 10	20.3	> 30	> 30	> 30	> 30	> 10	> 30	> 30	> 30
C#C[C@]1(O)CC[C@H]2[C@@H]3CCC4=CC(=O)CC[C@@H]4[C@H]3CC[C@@]21CC [LEVONORGESTREL]	–	> 30	> 30	> 30	> 30	> 30	–	–	> 30	–
OC[C@@H](O)[C@@H](O)[C@H](O)[C@H](O)CO [MANNITOL]	–	> 30	> 30	> 30	> 30	> 30	–	–	> 30	–
CN1CCCC(CN2c3ccccc3Sc3ccccc32)C1 (stereo unspecified) [MEPAZINE]	–	> 30	> 30	> 30	> 30	> 30	–	–	> 30	–
Sc1ncnc2nc[nH]c12 [MERCAPTOPURINE ANHYDROUS]	–	> 30	> 30	> 30	> 30	> 30	–	–	> 30	–
